Assay results from PubChem BioAssay (NCI).
Values joined by “and” are separate entries in the source; they are usually repeats but may differ in a detail not shown here. Identical values can stand only once.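 A five-concentration, 48-hour dose response in 96-well plates underlies each endpoint, interpolated linearly between surrounding concentrations. At the GI50, growth is halved. TGI marks complete inhibition of growth.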

How the values were obtained:
Experiment in all cases: NCI-60 cell line screen, 48 h
[1] = test system: SF-295 CNS
[2] = test system: NCI-H23 lung
[3] = test system: KM12 colon
[4] = test system: BT-549 breast
[5] = test system: COLO 205 colon
[6] = test system: OVCAR-8 ovarian
[7] = test system: 786-0 renal
[8] = test system: EKVX NSCLC
[9] = test system: OVCAR-4 ovarian
[10] = test system: HOP-62 NSCLC
[11] = test system: MOLT-4 leukemia
[12] = test system: NCI/ADR-RES ovarian
[13] = test system: SK-OV-3 ovarian
[14] = test system: M14 melanoma

Row | SMILES | TGI [1] | TGI [2] | TGI [3] | TGI [4] | TGI [5] | TGI [6] | TGI [7] | TGI [8] | TGI [9] | TGI [10] | TGI [11] [µM] | TGI [12] [µM] | TGI [13] | TGI [14] | GI50 [2] | GI50 [5] | GI50 [8] | GI50 [13]
1 | CC1(C)NC2C(=O)c3c([nH]c4ccccc34)[C@]3(C)CCC1CC23 (some centres undefined) | > 100 µM | > 100 µM | > 100 µM | > 100 µM | > 100 µM | > 100 µM | > 100 µM | > 100 µM | > 100 µM | > 100 µM | > 100 | > 100 |  |  |  |  |  | 
2 | C[C@]12CCC(=O)O[C@H]1CCCCO2 | > 100 µM |  | > 100 µM |  | > 100 µM | > 100 µM | > 100 µM | > 100 µM |  | > 100 µM | > 100 | > 100 | > 100 µM | > 100 µM |  |  |  | 
3 | O=c1[nH]nc(-c2ccccc2)c2[nH]c3c4ccccc4ccc3c12 |  | 32.7 µM | > 100 µM |  | > 100 µM |  | 48.1 µM | > 100 µM |  | > 100 µM | > 100 |  | > 100 µM | > 100 µM |  |  |  | 
4 | Cc1nc(-c2cc3cc([N+](=O)[O-])ccc3oc2=O)cs1 | > 100 µM |  | > 100 µM | > 100 µM | > 100 µM |  | > 100 µM | > 100 µM | > 100 µM | > 100 µM | > 100 |  | > 100 µM | > 100 µM |  |  |  | 
5 | CC(C)=CCC/C(C)=C/C=C/C(C)=C/C=C/C(C)=C/C=C/C=C(C)/C=C/C=C(C)/C=C/[C@H]1C(C(C)(C)O)CC[C@]1(C)O (some centres undefined) | > 100 µM | 72.7 µM | 70.6 µM |  |  | 52.2 µM | 46.8 µM | > 100 µM | > 100 µM | 40.8 µM | 54.9 | > 100 | > 100 µM | 91.1 µM |  |  |  | 
6 | C=CCCN1CCc2c([nH]c3ccccc23)C1C(=O)O (centres undefined) | > 100 µM | > 100 µM | > 100 µM |  | > 100 µM |  |  | > 100 µM | > 100 µM | > 100 µM | > 100 |  | > 100 µM | > 100 µM |  |  |  | 
7 | O=C1C(CN2CCCCC2)CCC1CN1CCCCC1 (centres undefined) | > 46.4 µM | 53.7 µM | > 69.7 µM | 34 µM | 40.7 µM | > 68.9 µM | 41.7 µM | > 100 µM |  | > 100 µM | 3.79 | 64.2 | > 100 µM | 32 µM |  |  |  | 
8 | OCC(O)COCn1nncc1Cn1ncc2c(SCc3ccccc3)ncnc21 (centres undefined) | > 100 µM | > 100 µM | > 100 µM | > 100 µM | > 100 µM | > 100 µM | > 100 µM | > 100 µM | > 100 µM | > 100 µM |  | > 100 | > 100 µM | > 100 µM |  |  |  | 
9 | Nc1nc(N)c2ncn(-c3ccc(Cl)cc3)c2n1 | > 100 µM | > 100 µM | > 100 µM |  | > 100 µM | > 100 µM | > 100 µM | > 100 µM | > 100 µM | > 100 µM |  | > 100 | 53.3 µM | > 100 µM |  |  |  | 
10 | CC(C)[Si](OC1=C(C(=O)N(C)c2cccc(Cl)c2)CCCC1)(C(C)C)C(C)C | 23.3 µM | 25.3 µM | 26.5 µM |  | 35 µM | 31 µM | 34.2 µM | 30.1 µM | 26 µM | 32.4 µM | > 100 | 26.3 | 30.6 µM | 29.3 µM |  |  |  | 
11 | COc1cc(/C=C(\C#N)C(N)=O)cc(Br)c1O | > 100 µM | > 100 µM | > 100 µM |  | > 100 µM | > 100 µM |  | > 100 µM | > 100 µM | > 100 µM | > 100 | > 100 | > 100 µM |  | 43 µM and > 100 µM | 73.8 µM and > 100 µM | 45.8 µM and > 100 µM | 
12 | O=Cc1ccc2c(c1)CC1(Cc3ccccc3C1)C2 | 94.5 µM | 50 µM | > 100 µM |  | 54.2 µM | 39 µM | 29.9 µM | > 100 µM | 48.7 µM | 34.2 µM | 42.9 | 79.8 | > 100 µM | 26.8 µM |  |  |  | 
13 | CC1NC(=O)CC(c2ccccc2)N(N=O)C1c1ccccc1 (centres undefined) | > 100 µM | > 100 µM | > 100 µM |  | > 72.9 µM | > 82.7 µM |  | > 100 µM | > 87.5 µM | > 92.7 µM | > 100 | > 62.9 | 62.6 µM |  |  |  |  | 
14 | O=C(N/N=C\c1cccc2c([N+](=O)[O-])cccc12)Nc1ccccc1 | 32.5 µM | 35.2 µM | 36.1 µM | 29.3 µM | 50.7 µM | 36.8 µM | 35.1 µM | 35.1 µM | 29.2 µM | 36 µM | 41.7 | 32.3 |  | 29.5 µM |  |  |  | 
15 | CC(=O)OCC12C(=O)C[C@@H](C)C3(CC(c4ccoc4)OC3=O)C1CCC(OC(C)=O)C21CO1 (some centres undefined) | > 100 µM | > 100 µM | > 100 µM | > 100 µM | > 100 µM | > 100 µM | > 100 µM |  | > 100 µM | > 100 µM | > 100 | > 100 |  | > 100 µM |  |  |  | 
16 | CCCCN1C(=O)N(c2ccc(OCC)cc2)C2N(CCCC)C1C(C)(C)C2(C)C (centres undefined) | > 100 µM | > 100 µM | > 100 µM | > 100 µM | 70 µM | > 100 µM | > 100 µM | 50.6 µM | > 100 µM | > 100 µM |  | 77.6 | 57 µM | > 100 µM |  |  |  | 
17 | O=C(NNC(=S)Nc1cccc(Cl)c1)c1cc(-c2ccccc2)nc2ccccc12 | 24.5 µM | 34.4 µM | 49 µM | 34.3 µM | 29.2 µM | 53.3 µM | 31.2 µM |  | 28.7 µM | 32.1 µM | 74.6 | 56.2 | 34.5 µM | 33.7 µM |  |  |  | 
18 | Cc1cn(C2CC(N(O)Cc3ccccc3)C(CO[Si](C)(C)C(C)(C)C)O2)c(=O)[nH]c1=O (centres undefined) | 39.6 µM and 31 µM | 66.3 µM and 31.3 µM | 51.7 µM and 31 µM | 34.7 µM and 30 µM | 35.8 µM and 32.6 µM | 84.1 µM and 32 µM | 30.1 µM and 31.1 µM | > 100 µM and 33.9 µM | 83.6 µM and 31.5 µM | 36.5 µM and 29.9 µM | > 100 |  | > 100 µM and 30.1 µM | 39 µM and 30.6 µM |  |  |  | 62 µM and 16.5 µM
